Measured values published in US20240239752A1, “BICYCLIC HETEROAROMATIC INHIBITORS OF KLK5” (BioCryst Pharmaceuticals, Inc., priority 2021, published 2024).

Molecular target: T1, recombinant human KLK5 (Homo sapiens, UniProt Q9Y337)
T1 construct: purchased Novoprotein or R&D Systems C415 or 1108-SE
T1 sequence (Q9Y337 23-293): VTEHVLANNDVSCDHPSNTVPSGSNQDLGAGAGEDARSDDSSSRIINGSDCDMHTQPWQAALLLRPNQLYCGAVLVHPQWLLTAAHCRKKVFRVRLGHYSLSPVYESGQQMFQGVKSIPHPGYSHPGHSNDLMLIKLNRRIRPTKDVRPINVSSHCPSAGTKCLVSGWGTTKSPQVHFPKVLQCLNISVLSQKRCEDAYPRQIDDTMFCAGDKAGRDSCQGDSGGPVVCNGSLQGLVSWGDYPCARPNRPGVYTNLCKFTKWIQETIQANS
Test: Kallikrein (KLK) 5 enzymatic assay (Boc-VPR-AMC fluorogenic substrate)
Assay type: biochemical
Conditions: recombinant human KLK5 0.1 μg/well, Boc-VPR-AMC 100 μM, pH 7.5, room temperature, 1% DMSO; tested a minimum of three times
How it was run: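 Fluorogenic rate assay at pH 7.5 (0.1 M NaH2PO4, 1% DMSO, room temperature), run at least three times per compound. Compound was premixed with 0.1 μg/well recombinant human KLK5 before adding 100 μM Boc-VPR-AMC; AMC release was read at ex 380/em 460 nm, and IC50 derived from inhibition of rate vs DMSO control.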

IC50 [nM]	SMILES
< 1000	Nc1nccc2c(-c3ccc4c(c3)[C@H](Oc3ccccc3CC(=O)O)C[C@H]4N3CCCCC3)cccc12 [Compound 459f, (+)-trans 2-(2-(((1R,3R)-6-(1-aminoisoquinolin-5-yl)-3-(piperidin-1-yl)-2,3-dihydro-1H-inden-1-yl)oxy)phenyl)acetic acid]
1000 to 10000	COc1c(-c2cc3c(COc4ccccc4CC(=O)O)cccc3o2)ccnc1CN [Compound 329d, 2-(2-((2-(2-(aminomethyl)-3-methoxypyridin-4-yl)benzofuran-4-yl)methoxy)phenyl)acetic acid]
< 1000	Cc1cccc(OC2CC3(CCCC3)c3ccc(-c4ccc5ccnc(N)c5c4)cc32)c1CC(=O)O (centres unmarked) [Compound 367b, 2-(2-((5′-(1-aminoisoquinolin-7-yl)-2′,3′-dihydrospiro[cyclopentane-1,1′-inden]-3′-yl)oxy)-6-methylphenyl)acetic acid]
> 10000	CC(C)n1nc(COc2ccccc2CC(=O)O)c2cc(-c3ccc4nc(N)oc4c3)ccc21 [Compound 105c, 2-(2-((5-(2-aminobenzo[d]oxazol-6-yl)-1-isopropyl-1H-indazol-3-yl)methoxy)phenyl)acetic acid]
< 1000	COc1c(C(=N)N)cccc1-c1ccc2c(c1)c(COc1ccccc1CC(=O)O)nn2C1CCOC1 (centres unmarked) [Compound 264d, 2-(2-((5-(3-carbamimidoyl-2-methoxyphenyl)-1-(tetrahydrofuran-3-yl)-1H-indazol-3-yl)methoxy)phenyl)acetic acid]
1000 to 10000	Cn1c(=O)n(Cc2ccccc2CC(=O)O)c2cc(-c3cccc4c(N)nccc34)ccc21 [Compound 218b, 2-(2-((6-(1-aminoisoquinolin-5-yl)-3-methyl-2-oxo-2,3-dihydro-1H-benzo[d]imidazol-1-yl)methyl)phenyl)acetic acid]
< 1000	CCOC(=O)Cc1ccccc1OCc1nn(CCF)c2ccc(Br)cc12 [Compound 182c, ethyl 2-(2-((5-bromo-1-(2-fluoroethyl)-1H-indazol-3-yl)methoxy)phenyl)acetate]
< 1000	N#Cc1ccc(CC(=O)O)c(O[C@@H]2CCc3ccc(-c4cccc5c(N)nccc45)cc32)c1 [Compound 424b, (R)-2-(2-((6-(1-aminoisoquinolin-5-yl)-2,3-dihydro-1H-inden-1-yl)oxy)-4-cyanophenyl)acetic acid]
1000 to 10000	COc1cc(-c2ccc3ccnc(N)c3c2)cc2c(COc3ccccc3CC(=O)O)coc12 [Compound 229f, 2-(2-((5-(1-aminoisoquinolin-7-yl)-7-methoxybenzofuran-3-yl)methoxy)phenyl)acetic acid]
< 1000	CCOC(=O)N1CC[C@@H](n2nc(COc3ccccc3CC(=O)O)c3cc(-c4cccc5c(N)nccc45)ccc32)C1 [Compound 340i, (R)-2-(2-((5-(1-aminoisoquinolin-5-yl)-1-(1-(ethoxycarbonyl)pyrrolidin-3-yl)-1H-indazol-3-yl)methoxy)phenyl)acetic acid]
1000 to 10000	CC(C)n1nc(COc2ccccc2CC(=O)O)c2cc(-c3ccc4onc(N)c4c3)ccc21 [Compound 102c, 2-(2-((5-(3-aminobenzo[d]isoxazol-5-yl)-1-isopropyl-1H-indazol-3-yl)methoxy)phenyl)acetic acid]
< 1000	Cc1cccc(OCc2nn(C3CCCC3)c3ccc(-c4cccc5c(N)nccc45)cc23)c1CC(=O)O [Compound 239f, 2-(2-((5-(1-aminoisoquinolin-5-yl)-1-cyclopentyl-1H-indazol-3-yl)methoxy)-6-methylphenyl)acetic acid]
< 1000	Nc1nccc2ccc(-c3ccc4c(c3)[C@H](Oc3cc(C(F)(F)F)ccc3CC(=O)O)CC4)cc12 [Compound 427c, (R)-2-(2-((6-(1-aminoisoquinolin-7-yl)-2,3-dihydro-1H-inden-1-yl)oxy)-4-(trifluoromethyl)phenyl)acetic acid]
< 1000	COc1c(C(=N)N)cccc1-c1ccc2c(c1)c(COc1ccccc1CC(=O)O)nn2C1CCC1 [Compound 238d, 2-(2-((5-(3-carbamimidoyl-2-methoxyphenyl)-1-cyclobutyl-1H-indazol-3-yl)methoxy)phenyl)acetic acid]
< 1000	CCOC(=O)N1CCC2(CC1)CC(Oc1ccccc1CC(=O)O)c1cc(-c3ccc4ccnc(N)c4c3)ccc12 (centres unmarked) [Compound 349d, 2-(2-((5-(1-aminoisoquinolin-7-yl)-1′-(ethoxycarbonyl)-2,3-dihydrospiro[indene-1,4′-piperidin]-3-yl)oxy)phenyl)acetic acid]
> 10000	CC(C)n1nc(COc2ccccc2CC(=O)O)c2cc(-c3cccc(-c4cn[nH]c4)c3)ccc21 [Compound 85c, 2-(2-((5-(3-(1H-pyrazol-4-yl)phenyl)-1-isopropyl-1H-indazol-3-yl)methoxy)phenyl)acetic acid]

IC50 [nM]	SMILES
1000 to 10000	Nc1nccc2ccc(-c3ccc4nn(C5CN(CCO)C5)c(COc5ccccc5CC(=O)O)c4c3)cc12 [Compound 119h, 2-(2-((5-(1-aminoisoquinolin-7-yl)-2-(1-(2-hydroxyethyl)azetidin-3-yl)-2H-indazol-3-yl)methoxy)phenyl)acetic acid]
< 1000	COC(=O)N1CCC2(CC1)CC(Oc1cc(OC)ccc1CC(=O)O)c1cc(-c3cccc4c(N)nccc34)ccc12 (centres unmarked) [Compound 453b, 2-(2-((5-(1-aminoisoquinolin-5-yl)-1′-(methoxycarbonyl)-2,3-dihydrospiro[indene-1,4′-piperidin]-3-yl)oxy)-4-methoxyphenyl)acetic acid]
< 1000	COCCN1CC(n2nc(COc3ccccc3CC(=O)O)c3cc(-c4ccc5ccnc(N)c5c4)ccc32)C1 [Compound 145b, 2-(2-((5-(1-aminoisoquinolin-7-yl)-1-(1-(2-methoxyethyl)azetidin-3-yl)-1H-indazol-3-yl)methoxy)phenyl)acetic acid]
> 10000	COc1c(CN)cccc1-c1cc(OC)c2occ(COc3ccccc3CC(=O)O)c2c1 [Compound 324d, 2-(2-((5-(3-(aminomethyl)-2-methoxyphenyl)-7-methoxybenzofuran-3-yl)methoxy)phenyl)acetic acid]
< 1000	COc1c(C(=N)N)cccc1-c1ccc2c(c1)c(COc1ccccc1CC(=O)O)nn2C(C)C [Compound 84f, 2-(2-((5-(3-carbamimidoyl-2-methoxyphenyl)-1-isopropyl-1H-indazol-3-yl)methoxy)phenyl)acetic acid]
> 10000	CC(C)n1nc(COc2ccccc2CC(=O)O)c2cc(-c3cccc4c3OCCC4N)ccc21 (centres unmarked) [Compound 213c, 2-(2-((5-(4-aminochroman-8-yl)-1-isopropyl-1H-indazol-3-yl)methoxy)phenyl)acetic acid]
> 10000	CC(C)n1nc(COc2ccccc2CC(=O)O)c2cc(-c3ccc4c(c3)C(O)CC4)ccc21 (centres unmarked) [Compound 77c, 2-(2-((5-(3-hydroxy-2,3-dihydro-1H-inden-5-yl)-1-isopropyl-1H-indazol-3-yl)methoxy)phenyl)acetic acid]
< 1000	Nc1nccc2c(-c3ccc4c(c3)c(COc3ccccc3CC(=O)O)cn4C3CCOC3)cccc12 (centres unmarked) [Compound 458f, 2-(2-((5-(1-aminoisoquinolin-5-yl)-1-(tetrahydrofuran-3-yl)-1H-indol-3-yl)methoxy)phenyl)acetic acid]
< 1000	COCCC1(CCOC)CC(Oc2ccccc2CC(=O)O)c2cc(-c3ccc4ccnc(N)c4c3)ccc21 (centres unmarked) [Compound 446f, 2-(2-((6-(1-aminoisoquinolin-7-yl)-3,3-bis(2-methoxyethyl)-2,3-dihydro-1H-inden-1-yl)oxy)phenyl)acetic acid]
> 10000	CC(C)n1nc(C(=O)Nc2ccccc2C(=O)O)c2cc(-c3ccc(C(=N)N)cc3)ccc21 [Compound 3b, 2-(5-(4-carbamimidoylphenyl)-1-isopropyl-1H-indazole-3-carboxamido)benzoic acid]
< 1000	Nc1nccc2ccc(-c3ccc4c(c3)C(Oc3ccccc3CC(=O)O)CC4)cc12 (centres unmarked) [Compound 199d, 2-(2-((6-(1-aminoisoquinolin-7-yl)-2,3-dihydro-1H-inden-1-yl)oxy)phenyl)acetic acid]
< 1000	Nc1nccc2c(-c3ccc4c(c3)c(COc3ccccc3CC(=O)O)nn4C3CCC(F)(F)C3)cccc12 (centres unmarked) [Compound 265h, 2-(2-((5-(1-aminoisoquinolin-5-yl)-1-(3,3-difluorocyclopentyl)-1H-indazol-3-yl)methoxy)phenyl)acetic acid]
1000 to 10000	Nc1nccc2ccc(-c3ccc4c(c3)[C@@H](Oc3ccccc3CC(=O)O)CC4)cc12 [Compound 221d, (S)-2-(2-((6-(1-aminoisoquinolin-7-yl)-2,3-dihydro-1H-inden-1-yl)oxy)phenyl)acetic acid]
< 1000	Cc1cccc(OC2CC3(CCN(C(=O)OC(C)C)CC3)c3ccc(-c4ccc5ccnc(N)c5c4)cc32)c1CC(=O)O (centres unmarked) [Compound 383c, 2-(2-((5-(1-aminoisoquinolin-7-yl)-1′-(isopropoxycarbonyl)-2,3-dihydrospiro[indene-1,4′-piperidin]-3-yl)oxy)-6-methylphenyl)acetic acid]
< 1000	Nc1nccc2c(-c3ccc4c(c3)[C@H](Oc3cc(F)ccc3CC(=O)O)CC4)cccc12 [Compound 422b, (R)-2-(2-((6-(1-aminoisoquinolin-5-yl)-2,3-dihydro-1H-inden-1-yl)oxy)-4-fluorophenyl)acetic acid]

SMILES	IC50 [nM]
CC(C)COC(=O)N1CCC2(CC1)CC(Oc1ccccc1CC(=O)O)c1cc(-c3ccc4ccnc(N)c4c3)ccc12 (centres unmarked) [Compound 389c, 2-(2-((5-(1-aminoisoquinolin-7-yl)-1′-(isobutoxycarbonyl)-2,3-dihydrospiro[indene-1,4′-piperidin]-3-yl)oxy)phenyl)acetic acid]	< 1000
